# Data taken from PubChem BioAssay (NCI).
#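 Interpolation was linear, between the two tested concentrations surrounding the appropriate level; five concentrations were tested over 48 hours in 96-well plates. GI50: concentration for 50% inhibition of growth. TGI: total growth inhibition.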
# What was measured:
# Experiment in all cases: DTP human tumour cell line panel, 48 h
# 786-0 renal = system: 786-0 renal
# A498 renal = system: A498 renal
# A549 NSCLC = system: A549 NSCLC
# ACHN renal = system: ACHN renal
# BT-549 breast = system: BT-549 breast
# CAKI-1 renal = system: CAKI-1 renal
# CCRF-CEM leukemia = system: CCRF-CEM leukemia
# COLO 205 colon = system: COLO 205 colon
# DU-145 prostate = system: DU-145 prostate
# EKVX NSCLC = system: EKVX NSCLC
# HCC-2998 colon = system: HCC-2998 colon
# HCT-116 colon = system: HCT-116 colon
# HCT-15 colon = system: HCT-15 colon
# HL-60(TB) leukemia = system: HL-60(TB) leukemia
# HOP-62 NSCLC = system: HOP-62 NSCLC
# HOP-92 NSCLC = system: HOP-92 NSCLC
# HS 578T breast = system: HS 578T breast
# HT29 colon = system: HT29 colon
# IGROV1 ovarian = system: IGROV1 ovarian
# K-562 leukemia = system: K-562 leukemia
# KM12 colon = system: KM12 colon
# LOX IMVI melanoma = system: LOX IMVI melanoma
# M14 melanoma = system: M14 melanoma
# MALME-3M melanoma = system: MALME-3M melanoma
# MCF7 breast = system: MCF7 breast
# MDA-MB-231 breast = system: MDA-MB-231 breast
# MDA-MB-435 = system: MDA-MB-435
# MDA-MB-468 breast = system: MDA-MB-468 breast
# MOLT-4 leukemia = system: MOLT-4 leukemia
# NCI-H226 lung = system: NCI-H226 lung
# NCI-H23 lung = system: NCI-H23 lung
# NCI-H460 lung = system: NCI-H460 lung
# NCI-H522 lung = system: NCI-H522 lung
# NCI/ADR-RES ovarian = system: NCI/ADR-RES ovarian
# OVCAR-3 ovarian = system: OVCAR-3 ovarian
# OVCAR-4 ovarian = system: OVCAR-4 ovarian
# OVCAR-5 ovarian = system: OVCAR-5 ovarian
# OVCAR-8 ovarian = system: OVCAR-8 ovarian
# PC-3 prostate = system: PC-3 prostate
# RPMI-8226 leukemia = system: RPMI-8226 leukemia
# RXF 393 renal = system: RXF 393 renal
# SF-268 CNS = system: SF-268 CNS
# SF-295 CNS = system: SF-295 CNS
# SF-539 CNS = system: SF-539 CNS
# SK-MEL-2 melanoma = system: SK-MEL-2 melanoma
# SK-MEL-28 melanoma = system: SK-MEL-28 melanoma
# SK-MEL-5 melanoma = system: SK-MEL-5 melanoma
# SK-OV-3 ovarian = system: SK-OV-3 ovarian
# SN12C renal = system: SN12C renal
# SNB-19 CNS = system: SNB-19 CNS
# SNB-75 CNS = system: SNB-75 CNS
# SR leukemia = system: SR leukemia
# SW-620 colon = system: SW-620 colon
# T-47D breast = system: T-47D breast
# TK-10 renal = system: TK-10 renal
# U251 CNS = system: U251 CNS
# UACC-257 melanoma = system: UACC-257 melanoma
# UACC-62 melanoma = system: UACC-62 melanoma
# UO-31 renal = system: UO-31 renal
compound,measurement,setting,value
O=C(N/N=C/c1ccsc1)c1[nH]c2ccc(Br)cc2c1-c1ccccc1,GI50,786-0 renal,509 nM
same,TGI,786-0 renal,17700 nM
same,GI50,A498 renal,19500 nM
same,TGI,A498 renal,46500 nM
same,GI50,A549 NSCLC,460 nM
same,TGI,A549 NSCLC,> 100000 nM
same,GI50,ACHN renal,585 nM
same,TGI,ACHN renal,27700 nM
same,GI50,BT-549 breast,317 nM
same,TGI,BT-549 breast,1950 nM
same,GI50,CAKI-1 renal,315 nM
same,TGI,CAKI-1 renal,25000 nM
same,GI50,CCRF-CEM leukemia,228 nM
same,TGI,CCRF-CEM leukemia,21700 nM
same,GI50,COLO 205 colon,353 nM
same,TGI,COLO 205 colon,1970 nM
same,GI50,DU-145 prostate,435 nM
same,TGI,DU-145 prostate,32900 nM
same,GI50,EKVX NSCLC,872 nM
same,TGI,EKVX NSCLC,29300 nM
same,GI50,HCC-2998 colon,399 nM
same,TGI,HCC-2998 colon,13000 nM
same,GI50,HCT-116 colon,190 nM
same,TGI,HCT-116 colon,4410 nM
same,GI50,HCT-15 colon,256 nM
same,TGI,HCT-15 colon,12800 nM
same,GI50,HL-60(TB) leukemia,199 nM
same,TGI,HL-60(TB) leukemia,656 nM
same,GI50,HOP-62 NSCLC,512 nM
same,TGI,HOP-62 NSCLC,18100 nM
same,GI50,HOP-92 NSCLC,2440 nM
same,TGI,HOP-92 NSCLC,25000 nM
same,GI50,HS 578T breast,202 nM
same,TGI,HS 578T breast,13200 nM
same,GI50,HT29 colon,272 nM
same,TGI,HT29 colon,4750 nM
same,GI50,IGROV1 ovarian,600 nM
same,TGI,IGROV1 ovarian,15600 nM
same,GI50,K-562 leukemia,103 nM
same,TGI,K-562 leukemia,> 44000 nM
same,GI50,KM12 colon,327 nM
same,TGI,KM12 colon,14100 nM
same,GI50,LOX IMVI melanoma,217 nM
same,TGI,LOX IMVI melanoma,13300 nM
same,GI50,M14 melanoma,267 nM
same,TGI,M14 melanoma,13100 nM
same,GI50,MALME-3M melanoma,6990 nM
same,TGI,MALME-3M melanoma,26100 nM
same,GI50,MCF7 breast,132 nM
same,TGI,MCF7 breast,13400 nM
same,GI50,MDA-MB-231 breast,792 nM
same,TGI,MDA-MB-231 breast,13100 nM
same,GI50,MDA-MB-435,76.4 nM
same,TGI,MDA-MB-435,525 nM
same,GI50,MDA-MB-468 breast,255 nM
same,TGI,MDA-MB-468 breast,3890 nM
same,GI50,MOLT-4 leukemia,386 nM
same,TGI,MOLT-4 leukemia,18400 nM
same,GI50,NCI-H226 lung,1750 nM
same,TGI,NCI-H226 lung,27600 nM
same,GI50,NCI-H23 lung,696 nM
same,TGI,NCI-H23 lung,18900 nM
same,GI50,NCI-H460 lung,156 nM
same,TGI,NCI-H460 lung,10600 nM
same,GI50,NCI-H522 lung,163 nM
same,TGI,NCI-H522 lung,699 nM
same,GI50,NCI/ADR-RES ovarian,173 nM
same,TGI,NCI/ADR-RES ovarian,549 nM
same,GI50,OVCAR-3 ovarian,202 nM
same,TGI,OVCAR-3 ovarian,12600 nM
same,GI50,OVCAR-4 ovarian,6100 nM
same,TGI,OVCAR-4 ovarian,> 66600 nM
same,GI50,OVCAR-5 ovarian,563 nM
same,TGI,OVCAR-5 ovarian,22500 nM
same,GI50,OVCAR-8 ovarian,313 nM
same,TGI,OVCAR-8 ovarian,10300 nM
same,GI50,PC-3 prostate,612 nM
same,TGI,PC-3 prostate,24000 nM
same,GI50,RPMI-8226 leukemia,236 nM
same,TGI,RPMI-8226 leukemia,16600 nM
same,GI50,RXF 393 renal,287 nM
same,TGI,RXF 393 renal,26700 nM
same,GI50,SF-268 CNS,817 nM
same,TGI,SF-268 CNS,17900 nM
same,GI50,SF-295 CNS,189 nM
same,TGI,SF-295 CNS,13800 nM
same,GI50,SF-539 CNS,190 nM
same,TGI,SF-539 CNS,943 nM
same,GI50,SK-MEL-2 melanoma,764 nM
same,TGI,SK-MEL-2 melanoma,20000 nM
same,GI50,SK-MEL-28 melanoma,4190 nM
same,TGI,SK-MEL-28 melanoma,22600 nM
same,GI50,SK-MEL-5 melanoma,260 nM
same,TGI,SK-MEL-5 melanoma,1830 nM
same,GI50,SK-OV-3 ovarian,2050 nM
same,TGI,SK-OV-3 ovarian,27200 nM
same,GI50,SN12C renal,473 nM
same,TGI,SN12C renal,12500 nM
same,GI50,SNB-19 CNS,1840 nM
same,TGI,SNB-19 CNS,66400 nM
same,GI50,SNB-75 CNS,234 nM
same,TGI,SNB-75 CNS,21500 nM
same,GI50,SR leukemia,255 nM
same,TGI,SR leukemia,63500 nM
same,GI50,SW-620 colon,204 nM
same,TGI,SW-620 colon,19100 nM
same,GI50,T-47D breast,3120 nM
same,TGI,T-47D breast,48500 nM
same,GI50,TK-10 renal,13500 nM
same,TGI,TK-10 renal,85000 nM
same,GI50,U251 CNS,724 nM
same,TGI,U251 CNS,18900 nM
same,GI50,UACC-257 melanoma,6930 nM
same,TGI,UACC-257 melanoma,41300 nM
same,GI50,UACC-62 melanoma,299 nM
same,TGI,UACC-62 melanoma,16000 nM
same,GI50,UO-31 renal,578 nM
same,TGI,UO-31 renal,24200 nM
